Data reported in ChEMBL document CHEMBL1649203, “Pharmacokinetics and safety of famciclovir in children with herpes simplex or varicella-zoster virus infection” (Antimicrob Agents Chemother, 2009).

Tests used:
[1] = tested on: Homo sapiens; test: Toxicity in HSV-infected 6 to <=12 years aged pediatric patient assessed as incidence of abdominal pain at 23.5 mg/kg, po bid; format: organism-based, Abdomen; parameters: dose 23.5 mg/kg, route oral; details: in vivo
[2] = tested on: Homo sapiens; test: Toxicity in HSV-infected 1 to <2 years aged pediatric patient assessed as pyrexia at 30.9 mg/kg, po administered as bid; format: organism-based; parameters: dose 30.9 mg/kg, route oral; details: in vivo
[3] = tested on: Homo sapiens; test: Toxicity in HSV-infected 2 to <6 years aged pediatric patient assessed as pyrexia at 27.6 mg/kg, po bid; format: organism-based; parameters: dose 27.6 mg/kg, route oral; details: in vivo
[4] = tested on: Homo sapiens; test: Toxicity in VZV-infected 1 to <2 years aged pediatric patient assessed as at least one adverse event at 40.8 mg/kg, po tid; format: organism-based; parameters: dose 40.8 mg/kg, route oral; details: in vivo
[5] = tested on: Homo sapiens; test: Toxicity in VZV-infected 6 to <=12 years aged pediatric patient assessed as at least one adverse event at 35.5 mg/kg, po tid; format: organism-based; parameters: dose 35.5 mg/kg, route oral; details: in vivo
[6] = tested on: Homo sapiens; test: Toxicity in orally dosed VZV-infected patient assessed as at least one adverse event administered as tid; format: organism-based; details: in vivo, po
[7] = tested on: Homo sapiens; test: Toxicity in VZV-infected 1 to <2 years aged pediatric patient assessed as incidence of diarrhea at 40.8 mg/kg, po tid; format: organism-based; parameters: dose 40.8 mg/kg, route oral; details: in vivo
[8] = tested on: Homo sapiens; test: Toxicity in VZV-infected 6 to <=12 years aged pediatric patient assessed as incidence of diarrhea at 35.5 mg/kg, po tid; format: organism-based; parameters: dose 35.5 mg/kg, route oral; details: in vivo
[9] = tested on: Homo sapiens; test: Toxicity in orally dosed VZV-infected patient assessed as incidence of diarrhea administered as tid; format: organism-based; details: in vivo, po
[10] = tested on: Homo sapiens; test: Toxicity in VZV-infected 1 to <2 years aged pediatric patient assessed as incidence of vomiting at 40.8 mg/kg, po tid; format: organism-based; parameters: dose 40.8 mg/kg, route oral; details: in vivo
[11] = tested on: Homo sapiens; test: Toxicity in VZV-infected 2 to <6 years aged pediatric patient assessed as incidence of vomiting at 40.6 mg/kg, po tid; format: organism-based; parameters: dose 40.6 mg/kg, route oral; details: in vivo
[12] = tested on: Homo sapiens; test: Toxicity in VZV-infected 6 to <=12 years aged pediatric patient assessed as incidence of vomiting at 35.5 mg/kg, po tid; format: organism-based; parameters: dose 35.5 mg/kg, route oral; details: in vivo
[13] = tested on: Homo sapiens; test: Toxicity in VZV-infected 1 to <2 years aged pediatric patient assessed as pyrexia at 40.8 mg/kg, po tid; format: organism-based; parameters: dose 40.8 mg/kg, route oral; details: in vivo
[14] = tested on: Homo sapiens; test: Toxicity in orally dosed VZV-infected patient assessed as pyrexia administered as tid; format: organism-based; details: in vivo, po
[15] = tested on: Homo sapiens; test: Toxicity in VZV-infected 1 to <2 years aged pediatric patient assessed as incidence of abdominal pain at 40.8 mg/kg, po tid; format: organism-based, Abdomen; parameters: dose 40.8 mg/kg, route oral; details: in vivo
[16] = tested on: Homo sapiens; test: Toxicity in orally dosed VZV-infected patient assessed as incidence of abdominal pain administered as tid; format: organism-based, Abdomen; details: in vivo, po
[17] = tested on: Homo sapiens; test: Toxicity in VZV-infected 2 to <6 years aged pediatric patient assessed as incidence of nausea at 40.6 mg/kg, po tid; format: organism-based; parameters: dose 40.6 mg/kg, route oral; details: in vivo
[18] = tested on: Homo sapiens; test: Toxicity in orally dosed VZV-infected patient assessed as incidence of nausea administered as tid; format: organism-based; details: in vivo, po
[19] = tested on: Homo sapiens; test: Toxicity in orally dosed VZV-infected patient assessed as incidence of cellulitis administered as tid; format: organism-based; details: in vivo, po
[20] = tested on: Homo sapiens; test: Toxicity in VZV-infected 1 to <2 years aged pediatric patient assessed as incidence of headache at 40.8 mg/kg, po tid; format: organism-based; parameters: dose 40.8 mg/kg, route oral; details: in vivo
[21] = tested on: Homo sapiens; test: Toxicity in VZV-infected 2 to <6 years aged pediatric patient assessed as incidence of headache at 40.6 mg/kg, po tid; format: organism-based; parameters: dose 40.6 mg/kg, route oral; details: in vivo
[22] = tested on: Homo sapiens; test: Toxicity in orally dosed VZV-infected patient assessed as incidence of headache administered as tid; format: organism-based; details: in vivo, po
[23] = tested on: Homo sapiens; test: Toxicity in VZV-infected 1 to <2 years aged pediatric patient assessed as incidence of pruritus at 40.8 mg/kg, po tid; format: organism-based; parameters: dose 40.8 mg/kg, route oral; details: in vivo
[24] = tested on: Homo sapiens; test: Toxicity in VZV-infected 6 to <=12 years aged pediatric patient assessed as incidence of pruritus at 35.5 mg/kg, po tid; format: organism-based; parameters: dose 35.5 mg/kg, route oral; details: in vivo
[25] = Tmax in 1 to <2 years aged pediatric patient administered as single dose; format: ADME, organism-based; details: human, in vivo
[26] = Cmax in 1 to <2 years aged pediatric patient administered as single dose; format: ADME, organism-based; details: human, in vivo
[27] = Cmax in 6 to <=12 years aged pediatric patient administered as single dose; format: ADME, organism-based; details: human, in vivo
[28] = tested on: Homo sapiens; test: AUC (0 to last) in 1 to <2 years aged pediatric patient administered as single dose; format: ADME, organism-based, Plasma; parameters: time 0 - last; details: in vivo
[29] = tested on: Homo sapiens; test: AUC (0 to last) in 2 to <6 years aged pediatric patient administered as single dose; format: ADME, organism-based, Plasma; parameters: time 0 - last; details: in vivo
[30] = tested on: Homo sapiens; test: AUC (0 to infinity) in 6 to <=12 years aged pediatric patient administered as single dose; format: ADME, organism-based, Plasma; parameters: time infinity; details: in vivo
[31] = Half life in 2 to <6 years aged pediatric patient administered as single dose; format: ADME, organism-based; details: human, in vivo
[32] = Apparent oral clearance in 1 to <2 years aged pediatric patient administered as single dose; format: ADME, organism-based; details: human, in vivo
[33] = Apparent oral clearance in 2 to <6 years aged pediatric patient administered as single dose; format: ADME, organism-based; details: human, in vivo
[34] = tested on: Homo sapiens; test: Toxicity in HSV-infected 1 to <2 years aged pediatric patient assessed as at least one adverse event at 30.9 mg/kg, po bid; format: organism-based; parameters: dose 30.9 mg/kg, route oral; details: in vivo
[35] = tested on: Homo sapiens; test: Toxicity in HSV-infected 2 to <6 years aged pediatric patient assessed as at least one adverse event at 27.6 mg/kg, po bid; format: organism-based; parameters: dose 27.6 mg/kg, route oral; details: in vivo
[36] = tested on: Homo sapiens; test: Toxicity in orally dosed HSV-infected patient assessed as at least one adverse event administered as bid; format: organism-based; details: in vivo, po
[37] = tested on: Homo sapiens; test: Toxicity in HSV-infected 1 to <2 years aged pediatric patient assessed as incidence of vomiting at 30.9 mg/kg, po bid; format: organism-based; parameters: dose 30.9 mg/kg, route oral; details: in vivo
[38] = tested on: Homo sapiens; test: Toxicity in HSV-infected 6 to <=12 years aged pediatric patient assessed as incidence of vomiting at 23.5 mg/kg, po bid; format: organism-based; parameters: dose 23.5 mg/kg, route oral; details: in vivo
[39] = tested on: Homo sapiens; test: Toxicity in orally dosed HSV-infected patient assessed as incidence of vomiting administered as bid; format: organism-based; details: in vivo, po
[40] = tested on: Homo sapiens; test: Toxicity in HSV-infected 2 to <6 years aged pediatric patient assessed as incidence of diarrhea at 27.6 mg/kg, po bid; format: organism-based; parameters: dose 27.6 mg/kg, route oral; details: in vivo
[41] = tested on: Homo sapiens; test: Toxicity in HSV-infected 6 to <=12 years aged pediatric patient assessed as incidence of diarrhea at 23.5 mg/kg, po bid; format: organism-based; parameters: dose 23.5 mg/kg, route oral; details: in vivo
[42] = tested on: Homo sapiens; test: Toxicity in HSV-infected 1 to <2 years aged pediatric patient assessed as incidence of headache at 30.9 mg/kg, po bid; format: organism-based; parameters: dose 30.9 mg/kg, route oral; details: in vivo
[43] = tested on: Homo sapiens; test: Toxicity in HSV-infected 2 to <6 years aged pediatric patient assessed as incidence of headache at 27.6 mg/kg, po bid; format: organism-based; parameters: dose 27.6 mg/kg, route oral; details: in vivo
[44] = tested on: Homo sapiens; test: Toxicity in HSV-infected 6 to <=12 years aged pediatric patient assessed as incidence of headache at 23.5 mg/kg, po bid; format: organism-based; parameters: dose 23.5 mg/kg, route oral; details: in vivo
[45] = tested on: Homo sapiens; test: Toxicity in orally dosed HSV-infected patient assessed as incidence of headache administered as bid; format: organism-based; details: in vivo, po
[46] = tested on: Homo sapiens; test: Toxicity in HSV-infected 1 to <2 years aged pediatric patient assessed as incidence of nausea at 30.9 mg/kg, po bid; format: organism-based; parameters: dose 30.9 mg/kg, route oral; details: in vivo
[47] = tested on: Homo sapiens; test: Toxicity in orally dosed HSV-infected patient assessed as incidence of nausea administered as bid; format: organism-based; details: in vivo, po
[48] = tested on: Homo sapiens; test: Toxicity in HSV-infected 1 to <2 years aged pediatric patient assessed as incidence of cough at 30.9 mg/kg, po bid; format: organism-based; parameters: dose 30.9 mg/kg, route oral; details: in vivo
[49] = tested on: Homo sapiens; test: Toxicity in HSV-infected 6 to <=12 years aged pediatric patient assessed as incidence of cough at 23.5 mg/kg, po bid; format: organism-based; parameters: dose 23.5 mg/kg, route oral; details: in vivo
[50] = tested on: Homo sapiens; test: Toxicity in HSV-infected 2 to <6 years aged pediatric patient assessed as incidence of abdominal pain at 27.6 mg/kg, po bid; format: organism-based, Abdomen; parameters: dose 27.6 mg/kg, route oral; details: in vivo

SMILES: Nc1nc2c(ncn2CCC(CO)CO)c(=O)[nH]1 [PENCICLOVIR]
- Activity [1]: 5.6%
- Activity [2]: 15.4%
- Activity [3]: 0%
- Activity [4]: 38.9%
- Activity [5]: 43.8%
- Activity [6]: 45.3%
- Activity [7]: 11.1%
- Activity [8]: 18.8%
- Activity [9]: 11.3%
- Activity [10]: 27.8%
- Activity [11]: 0%
- Activity [12]: 0%
- Activity [13]: 11.1%
- Activity [14]: 7.5%
- Activity [15]: 0%
- Activity [16]: 3.8%
- Activity [17]: 5.3%
- Activity [18]: 3.8%
- Activity [19]: 3.8%
- Activity [20]: 0%
- Activity [21]: 0%
- Activity [22]: 3.8%
- Activity [23]: 5.6%
- Activity [24]: 6.3%
- Tmax [25]: 1.08 h
- Cmax [26]: 3060 ng/mL
- Cmax [27]: 3410 ng/mL
- AUC [28]: 6.52 ug/hr.ml
- AUC [29]: 6.31 ug/hr.ml
- AUC [30]: 9.33 ug/hr.ml
- half-life [31]: 1.28 h
- CL/F [32]: 278 mL/min
- CL/F [33]: 410 mL/min
- Activity [34]: 42.2%
- Activity [35]: 50%
- Activity [36]: 55.3%
- Activity [37]: 15.4%
- Activity [38]: 11.1%
- Activity [39]: 10.6%
- Activity [40]: 6.3%
- Activity [41]: 11.1%
- Activity [42]: 0%
- Activity [43]: 0%
- Activity [44]: 22.2%
- Activity [45]: 8.5%
- Activity [46]: 7.7%
- Activity [47]: 6.4%
- Activity [48]: 7.7%
- Activity [49]: 5.6%
- Activity [50]: 6.3%
